Reference: patent US9346827B2, “5-amino-oxazepine and 5-amino-thiazepane compounds as beta secretase antagonists and methods of use” (Amgen Inc., priority 2011, dated 2016)

Key:
BACE 1 = BACE 1 (Homo sapiens (Human), UniProt P56817); experiment: In vitro enzymatic BACE FRET assay; type: biochemical; conditions: average IC50; enzyme 0.2 nM, FRET substrate 50 nM, pH 4.2
Procedure: In Vitro Enzymatic BACE FRET (Fluorescence Resonance Energy Transfer) Assay
The assay buffer used in this screen is 0.05 M acetate, pH 4.2, 10% DMSO final, 100 uM genapol (which is a nonionic detergent, below its Critical Micelle Concentration). […] This assay is effectively started by the addition of FRET substrate (50 nM) and the combination is incubated for one hour. The FRET assay is terminated with by addition of Tris buffer, which raises the pH to neutrality, and the fluorescence is determined. The FRET substrate is a peptide with commercially available fluorophore and quencher, on opposite sides of the BACE cleavage site. Proteolytic cleavage of the FRET substrate releases quenching of fluorescence (excitation […] and […]).

[1] = tested on: Aβ40 in conditioned medium of cells expressing amyloid precursor protein; experiment: In vitro BACE cell-based assay (HEK cell assay, Aβ40 sandwich ELISA); conditions: Homo sapiens, HEK293; average IC50; inhibition of Aβ40 after 24 h incubation
Procedure: In Vitro BACE Cell-Based Assay
The cell-based assay measures inhibition or reduction of Aβ40 in conditioned medium of test compound treated cells expressing amyloid precursor protein.
Cells stably expressing Amyloid Precursor Protein (APP) were plated at a density of 40K cells/well in 96 well plates (Costar). The cells were cultivated for 24 hours at 37° C. and 5% CO2 in DMEM supplemented with 10% FBS. The test compounds were then added to cells in 10-point dose response concentrations with the starting concentration being either 100 μM or 10 μM. The compounds were diluted from stock solutions in DMSO and the final DMSO concentration of the test compounds on cells was 0.1%. After 24 h of incubation with the test compounds the supernatant conditioned media was collected and the Aβ40 levels were determined using a sandwich ELISA. The IC50 of the compound was calculated from the percent of control or percent inhibition of Aβ40 as a function of the concentration of the test compound.
The sandwich ELISA to detect Aβ40 was performed in 96 well microtiter plates, which were pre-treated with goat anti-rabbit IgG (Pierce). The capture and detecting antibody pair that were used to detect Aβ40 from cell supernatants were affinity purified pAb40 (Biosource) and biotinylated 6E10 (Signet Labs Inc.), respectively. The optimal concentration for the pAb40 antibody was 3 μg/ml in Superblock/TBS (Pierce) that was supplemented with 0.05% Tween 20 (Sigma).
Cellular supernatants were incubated with the capture antibody for 3 h at 4° C., followed by 3 wash steps in TBS-tween (0.05%). The detecting antibody incubation was for 2 h at 4° C., again followed by the wash steps as described previously. The final readout of the ELISA is Time-Resolved Fluorescence (counts per minute) using Delfia reagents Streptavidin-Europium and Enhancement solutions (Perkin Elmer) and the Victor 2 multilabel counter (Perkin Elmer).

BACE 1, sequence (P56817 46-501, species assumed): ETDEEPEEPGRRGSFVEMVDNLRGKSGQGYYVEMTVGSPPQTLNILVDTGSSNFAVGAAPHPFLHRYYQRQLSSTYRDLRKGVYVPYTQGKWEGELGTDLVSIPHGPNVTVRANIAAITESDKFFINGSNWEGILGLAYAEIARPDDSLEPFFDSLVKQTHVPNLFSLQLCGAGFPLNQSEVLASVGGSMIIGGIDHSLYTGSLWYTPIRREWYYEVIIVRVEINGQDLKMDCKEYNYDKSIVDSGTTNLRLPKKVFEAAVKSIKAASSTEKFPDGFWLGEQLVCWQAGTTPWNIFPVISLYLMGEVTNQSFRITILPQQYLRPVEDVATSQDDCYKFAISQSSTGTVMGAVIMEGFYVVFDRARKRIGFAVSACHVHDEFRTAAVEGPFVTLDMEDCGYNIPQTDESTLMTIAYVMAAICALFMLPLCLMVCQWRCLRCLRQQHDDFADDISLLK

SMILES | IC50 (BACE 1) | IC50 [1]
NC1=NC2(COCC1)c1cc(-c3cccnc3F)ccc1Oc1cnc(-c3ccnc(F)c3)cc12 (racemic) [Example 2, (5R/S)-7-(2-fluoro-3-pyridinyl)-3-(2-fluoro-4-pyridinyl)-6′,7′-dihydrospiro-[chromeno-[2,3-c]pyridine-5,3′-[1,4]oxazepin]-5′-amine] | 1 nM | 3 nM
CC(C)(C)COc1cc(F)c2c(c1)C1(COCCC(N)=N1)c1cc(-c3cccnc3F)ccc1O2 (racemic) [Example 4, (3R/S)-2′-(2,2-dimethylpropoxy)-4′-fluoro-7′-(2-fluoro-3-pyridinyl)-6,7-dihydrospiro[1,4-oxazepine-3,9′-xanthen]-5-amine] | 1 nM | 12 nM
NC1=N[C@]2(COCC1)c1cc(Br)ccc1Oc1cnc(Cl)cc12 [Example 3A, (5R)-7-bromo-3-chloro-6′,7′-dihydrospiro-[chromeno[2,3-c]pyridine-5,3′-[1,4]oxazepin]-5′-amine] | 9230 nM | 6370 nM
NC1=N[C@@]2(COCC1)c1cc(Br)ccc1Oc1cnc(Cl)cc12 [Example 3B, (5S)-7-bromo-3-chloro-6′,7′-dihydrospiro-[chromeno[2,3-c]-pyridine-5,3′-[1,4]oxazepin]-5′-amine] | 3830 nM | 892 nM
NC1=N[C@]2(COCC1)c1cc(-c3cccnc3F)ccc1Oc1cnc(-c3ccnc(F)c3)cc12 [Example 13, (5R)-7-(2-fluoro-3-pyridinyl)-3-(2-fluoro-4-pyridinyl)-6′,7′-dihydrospiro[chromeno-[2,3-c]-pyridine-5,3′-[1,4]oxazepin]-5′-amine] | 139 nM | 78 nM
NC1=N[C@@]2(COCC1)c1cc(-c3cccnc3F)ccc1Oc1cnc(-c3ccnc(F)c3)cc12 [Example 14, (5S)-7-(2-fluoro-3-pyridinyl)-3-(2-fluoro-4-pyridinyl)-6′,7′-dihydrospiro[chromeno-[2,3-c]-pyridine-5,3′-[1,4]oxazepin]-5′-amine] | 0.5 nM | 1 nM
CC(C)(C)COc1cc(F)c2c(c1)[C@]1(COCCC(N)=N1)c1cc(-c3cccnc3F)ccc1O2 [Example 15, (3S)-2′-(2,2-dimethylpropoxy)-4′-fluoro-7′-(2-fluoro-3-pyridinyl)-6,7-dihydrospiro[1,4-oxazepine-3,9′-xanthen]-5-amine] | 0.5 nM | 7 nM
CC(C)(C)COc1cc(F)c2c(c1)[C@@]1(COCCC(N)=N1)c1cc(-c3cccnc3F)ccc1O2 [Example 16, (3R)-2′-(2,2-dimethylpropoxy)-4′-fluoro-7′-(2-fluoro-3-pyridinyl)-6,7-dihydrospiro[1,4-oxazepine-3,9′-xanthen]-5-amine] | 285 nM | 300 nM
NC1=N[C@]2(CCOC1)c1cc(-c3cccnc3F)ccc1Oc1cnc(-c3ccnc(F)c3)cc12 [Example 17, (5R)-7-(2-fluoro-3-pyridinyl)-3-(2-fluoro-4-pyridinyl)-6′,7′-dihydro-2′H-spiro[chromeno[2,3-c]pyridine-5,5′-[1,4]oxazepin]-3′-amine] | 369 nM | 689 nM
NC1=N[C@@]2(CCOC1)c1cc(-c3cccnc3F)ccc1Oc1cnc(N3CCC(F)(F)C3)cc12 [Example 19, (S)-3-(3,3-difluoropyrrolidin-1-yl)-7-(2-fluoropyridin-3-yl)-6′,7′-dihydro-2′H-spiro[chromeno[2,3-c]pyridine-5,5′-[1,4]oxazepin]-3′-amine] | 3 nM | 4 nM
